Patent US20140162974A1, “METHODS FOR MODULATION OF PHOSPHORUS AND FGF23” (Luitpold Pharmaceuticals, Inc., priority 2012, published 2014)

How the values were obtained:
FGF-23 C-Terminal = assay: VIT-23 study: plasma FGF-23 C-terminal assay; assay type: in vivo, human
Protocol: Subjects with a hemoglobin (Hgb) that meets inclusion requirements and no exclusionary criteria will be offered participation in this 5-6 week study.
During the Treatment Phase, all subjects received a maximum dose of 1000 mg of IV iron. […] If no reaction occurred, the remainder of the dose (up to 15 mg/kg or 1000 mg including the test dose) was given as per Investigator. The infusion was given only when resuscitative techniques for the treatment of anaphylactic and anaphylactoid reactions were readily available.
Primary Endpoints included changes in blood and urine markers of phosphate and bone metabolism following IV iron administration. Blood markers include (all performed in morning after 10 hr fast): Serum Phosphate; Serum Potassium; Plasma Fibroblast growth factor 23 via 2nd generation Immutopics C-terminal assay; Serum Vitamin D; 1, 25 dihydroxy Vitamin D (1,25 [OH]2D); 25 hydroxy Vitamin D (250H-D); Serum Osteocalcin; Serum Bone-specific Alkaline phosphatase; Plasma intact Parathyroid hormone; Serum creatinine; Hepcidin; Reticulocyte count; Hemoglobin; Ferritin; Transferrin Saturation (TSAT); and Sample for archive. Urine markers (collected over a 3 hour period in the morning) (ratio of phosphate to creatinine determined to offset inter-patient variability in urine concentration) include: Phosphate; Creatinine; Calcium; Amino acids; Glucose; Albumin; Deoxypyridinoline cross link (Dpd)—a collagen type I cross link that indicates bone resorption; Beta-2-microglobulin; and Sample for archive.
All subjects had laboratory assessments at Screening, Day 0, Day 1 (24 hrs), Day 7, Day 14, and Day 35. Any subject with a change in phosphate value after Day 0 had additional phosphate measurements at 14 day intervals (following Day 35) until the level returned to normal (as defined by the laboratory reference range). Safety evaluation for all subjects included adverse events, physical examination, including vital signs, and laboratory assessments. Three hour urine collections was also performed on Day 0, Day 1 (24 hrs), Day 7, Day 14, and Day 35. Any subject who withdrew from the study will receive a follow up phone call 30 days after they received study drug.
The “baseline” was the value at Day 0 prior to administration of any study drug. The value of “n” for the baseline measurement may have be different at each study visit because the baseline values were assessed only for those individuals with data at the given visit.

serum phosphate = conditions: previous studies (2-10); cited from earlier work
[1] = VIT-30 safety: composite cardiovascular endpoint and adverse events; assay type: in vivo
Protocol: Study visits were on Days 0, 3, 7, 10, 14, 28, 56, and 120. A phone assessment occurred on Day 90.
The Venofer Group received 5 doses of Venofer, 200 mg for a total dose of 1,000 mg.
For Venofer, subjects received, as an IV push injection over 2 to 5 minutes, 200 mg on Days 0, 7, and 14 with 2 additional doses given: 1 between Days 0 and 7 and the other between Days 7 and 14 (i.e., for a total of 5 doses [1,000 mg]).
For safety, the primary measure was the proportion of subjects experiencing treatment-emergent adverse event included in the primary composite safety endpoint. Treatment-emergent events included events that started on or after the first dose of randomized treatment. The composite safety endpoint included: deaths due to any cause; nonfatal myocardial infarction; nonfatal stroke; unstable angina requiring hospitalization; congestive heart failure requiring hospitalization or medical intervention; arrhythmias; protocol-defined hypertensive events; and protocol-defined hypotensive events. These events were adjudicated in a blinded fashion. Supportive safety measures included: proportion of subjects who died (all cause mortality); time to first event comprising the primary composite safety endpoint; proportion of subjects reporting treatment-emergent adverse events, overall and related; proportion of subjects reporting treatment-emergent serious adverse events, overall and related; incidence of treatment-emergent potentially clinically significant (PCS) clinical laboratory values; and incidence of treatment-emergent PCS vital sign values.
The Safety Population consisted of all subjects who received a dose of randomized treatment. All safety analyses were performed with the Safety Population.
Safety assessments were summarized for the Safety Population unless stated otherwise. Subjects were analyzed under the treatment actually received.
The precision of the estimated treatment group difference was measured by the width of the 95% CI.
The number and percent of subjects who reported treatment-emergent adverse events were summarized for each treatment group. A treatment-emergent adverse event was an event that began after receipt of randomized treatment.
The adverse event profile was characterized with severity (as graded by Version 3.0 of the NCI CTCAE) and relationship (unrelated and related) to study drug. Related adverse events were events that were possibly or probably related to treatment in the Investigator's judgment. Events with unknown severity or relationship were counted as unknown.
The number and percent of subjects who reported treatment-emergent serious adverse events were similarly summarized for each treatment group. The number and percent of subjects who reported treatment-emergent adverse events resulting in discontinuation of study drug were similarly summarized for each treatment group.
Time to the first adverse event comprising the primary composite safety endpoint was summarized with the Kaplan-Meier approach. […] The log-rank statistic were used to compare time-to-event curves between treatment groups and a 95% CI of the hazard ratio was calculated with a Cox proportional hazards model.

[2] = 13-week cumulative dose pre-clinical studies; assay type: in vivo, dogs and rats; conditions: over 13 weeks; clinical signs of iron accumulation in liver, spleen, kidneys
[3] = in vivo, cited from earlier work

Substance: iron dextran [reference compound]
- FGF-23 C-Terminal, EDTApl-RUO, Visit, Mean (FGF-23 C-Terminal; Day 1): 151.60 RU/mL
- FGF-23 C-Terminal, EDTApl-RUO, Change to Visit, Mean (FGF-23 C-Terminal; Day 1 vs baseline): −716.03 RU/mL
- FGF-23 C-Terminal, EDTApl-RUO, Visit, Mean (FGF-23 C-Terminal; Day 7): 114.13 RU/mL
- FGF-23 C-Terminal, EDTApl-RUO, Change to Visit, Mean (FGF-23 C-Terminal; Day 7 vs baseline): −682.42 RU/mL
- FGF-23 C-Terminal, EDTApl-RUO, Visit, Mean (FGF-23 C-Terminal; Day 14): 107.39 RU/mL
- FGF-23 C-Terminal, EDTApl-RUO, Change to Visit, Mean (FGF-23 C-Terminal; Day 14 vs baseline): −733.96 RU/mL
- FGF-23 C-Terminal, EDTApl-RUO, Visit, Mean (FGF-23 C-Terminal; Day 35): 360.71 RU/mL
- FGF-23 C-Terminal, EDTApl-RUO, Change to Visit, Mean (FGF-23 C-Terminal; Day 35 vs baseline): −683.57 RU/mL
- FGF-23 C-Terminal, EDTApl-RUO, Visit, Mean (FGF-23 C-Terminal; Minimum post-baseline value): 94.00 RU/mL
- FGF-23 C-Terminal, EDTApl-RUO, Change to Visit, Mean (FGF-23 C-Terminal; Minimum value vs baseline): −732.67 RU/mL

Substance: polynuclear iron (III)-hydroxide 4(R)-(poly-(1→4)-O-α-glucopyranosyl)-oxy-2(R),3(S),5(R),6-tetrahydroxy-hexanoate [FCM]
- occurrence of transient reductions in serum phosphate levels (serum phosphate): up to 60%
- FGF-23 C-Terminal, EDTApl-RUO, Visit, Mean (FGF-23 C-Terminal; Day 1): 176.80 RU/mL
- FGF-23 C-Terminal, EDTApl-RUO, Change to Visit, Mean (FGF-23 C-Terminal; Day 1 vs baseline): −648.30 RU/mL
- FGF-23 C-Terminal, EDTApl-RUO, Visit, Mean (FGF-23 C-Terminal; Day 7): 165.23 RU/mL
- FGF-23 C-Terminal, EDTApl-RUO, Change to Visit, Mean (FGF-23 C-Terminal; Day 7 vs baseline): −699.73 RU/mL
- FGF-23 C-Terminal, EDTApl-RUO, Visit, Mean (FGF-23 C-Terminal; Day 14): 170.12 RU/mL
- FGF-23 C-Terminal, EDTApl-RUO, Change to Visit, Mean (FGF-23 C-Terminal; Day 14 vs baseline): −584.59 RU/mL
- FGF-23 C-Terminal, EDTApl-RUO, Visit, Mean (FGF-23 C-Terminal; Day 35): 141.56 RU/mL
- FGF-23 C-Terminal, EDTApl-RUO, Change to Visit, Mean (FGF-23 C-Terminal; Day 35 vs baseline): −692.29 RU/mL
- FGF-23 C-Terminal, EDTApl-RUO, Visit, Mean (FGF-23 C-Terminal; Minimum post-baseline value): 98.73 RU/mL
- FGF-23 C-Terminal, EDTApl-RUO, Change to Visit, Mean (FGF-23 C-Terminal; Minimum value vs baseline): −684.57 RU/mL
- tolerability ([1]; 2 injections of 750 mg): well tolerated
- subjects who discontinued the study or study drug subsequent to a protocol-defined hypertensive event ([1]; 10 subjects): 10.5%
- hazard ratio (FCM versus Venofer) excluding protocol-defined hypertensive and hypotensive events ([1]; Cox proportional hazards): 1.017
- hazard ratio (FCM versus Venofer) for death due to any cause, nonfatal myocardial infarction, or nonfatal stroke ([1]; Cox proportional hazards): 0.685
- protocol-defined hypertensive events ([1]; component of primary composite safety endpoint): 7.45%
- drug related treatment emergent adverse event: dizziness ([1]; in vivo): 2.4%
- drug related treatment emergent adverse event: flushing ([1]; in vivo): 3.0%
- drug related treatment emergent adverse event: hypertension ([1]; in vivo): 4.6%
- drug related treatment emergent adverse event: nausea ([1]; in vivo): 8.6%
- drug related treatment emergent adverse event: vomiting ([1]; in vivo): 2.0%
- serious adverse event: cardiac failure congestive ([1]; in vivo): 2.4%
- subjects prematurely discontinued from study drug due to adverse events ([1]; in vivo): 2.6%
- subjects with Grade 3 treatment emergent adverse events ([1]; in vivo): 12.9%
- subjects with Grade 4 treatment emergent adverse events ([1]; in vivo): 4.7%
- subjects with Grade 5 (fatal) treatment emergent adverse events ([1]; in vivo): 1.2%
- subjects with adjudicated events of death due to any cause, nonfatal myocardial infarction, or nonfatal stroke ([1]; in vivo): 1.88%
- subjects with adverse event that resulted in discontinuation from the study ([1]; in vivo): 2.4%
- subjects with at least 1 serious adverse event ([1]; in vivo): 15.8%
- subjects with at least 1 treatment emergent adverse event ([1]; in vivo): 65.4%
- treatment emergent adverse event: hypertension ([1]; in vivo): 10.7%
- treatment emergent adverse event: nausea ([1]; in vivo): 13.5%
- subjects with at least 1 drug related treatment emergent adverse event ([1]; possibly or probably related): 23.4%
- cumulative dose with no observed adverse effect level [2]: up to 117 mg iron/kg body weight
- tissue distribution after intravenous administration ([3]; iv): mainly found in the liver, spleen, and bone marrow
- projected calculated terminal half-life (t1/2) [3]: approximately 16 hours
